Our source for the EC50 values is BindingDB's records for doi:10.1021/jm049465g (National Institute On Drug Abuse-Intramural Research Program, 2005).

A short description of this assay: Inhibition of quinpirole stimulation of mitogenesis at human dopamine D2 receptors expressed in Chinese hamster ovary cells.
A word on the EC50: it is the concentration that produces a half-maximal response. Compound `O=C(NC/C=C/CN1CCN(c2cccc(Cl)c2Cl)CC1)c1ccc(I)cc1` [N-{4-[4-(2,3-Dichloro-phenyl)-piperazin-1-yl]-but-2-enyl}-4-iodo-benzamide] showed an EC50 of 162 nM.
`COc1ccc(C(=O)NC/C=C/CN2CCN(c3cccc(Cl)c3Cl)CC2)cc1` [N-{4-[4-(2,3-Dichloro-phenyl)-piperazin-1-yl]-but-2-enyl}-4-methoxy-benzamide] yielded an EC50 of 61.8 nM.
The value for `O=C(NC/C=C/CN1CCN(c2cccc(Cl)c2Cl)CC1)c1ccc([N+](=O)[O-])cc1` [N-{(E)-4-[4-(2,3-Dichloro-phenyl)-piperazin-1-yl]-but-2-enyl}-4-nitro-benzamide] was 13.8 nM.
